test system: Tetranor-PGDM EIA Antiserum; test: Cross-reactivity testing of the antibody in competitive tetranor-PGDM EIA; conditions: Specificity of the Tetranor-PGDM EIA Antiserum; Example 3 Step D2c
Method: To determine cross-reactivity of an antibody, the standard curve using optimal tracer and Ab dilutions according the kit instructions was set up. Tetranor PGDM was diluted to 10 ng/mL for the first point in the standard curve and diluted 2.5-fold serially 7 times. First standard dilutions (10 μg/mL) of tetranor-PGJM, tetranor-PGEM, tetranor-PGFM, PGA2, PGD2, PGE2, PGF2α, PGJ2, 13,14-dihydro-15-keto PGD2, 13,14-dihydro-15-keto-PGE2, 13,14-dihydro-15-keto-PGF2, were prepared and 7 additional 6-fold serial dilutions were performed. IC50s of all compounds were determined and each percent cross-reactivity (% XR) values of the potentially cross-reactive compounds was determined by dividing the IC50 of tetranor-PGDM by the IC50 of the test compound and multiplying by 100.

Row | Compound | Cross-reactivity (% XR)
1 | CCCCC[C@H](O)/C=C/[C@H]1C=CC(=O)[C@@H]1C/C=C\CCCC(=O)O [Prostaglandin A2] | <0.01%
2 | O=C(O)CCCCC(=O)CC[C@H]1[C@H](O)CC(=O)[C@@H]1CCC(=O)O [tetranor-PGEM] | 0.3%
3 | CCCCCC(=O)CC[C@H]1C(=O)C[C@H](O)[C@@H]1C/C=C\CCCC(=O)O [13,14-dihydro-15-keto Prostaglandin D2] | <0.01%
4 | O=C(O)CCCCC(=O)CC[C@H]1C(=O)C=C[C@@H]1CCC(=O)O [tetranor-PGJM] | 376%
5 | CCCCC[C@H](O)/C=C/[C@H]1C(=O)C=C[C@@H]1C/C=C\CCCC(=O)O [Prostaglandin J2] | <0.01%
6 | CCCCC[C@H](O)/C=C/[C@H]1[C@H](O)CC(=O)[C@@H]1C/C=C\CCCC(=O)O [Prostaglandin E2] | <0.01%
7 | O=C(O)CCCCC(=O)CC[C@H]1C(=O)C[C@H](O)[C@@H]1CCC(=O)O [tetranor-PGDM, 9α-hydroxy-11,15-dioxo-13,14-dihydro-2,3,4,5-tetranor-prostan-1,20-dioic acid] | 100%
8 | CCCCC[C@H](O)/C=C/[C@H]1C(=O)C[C@H](O)[C@@H]1C/C=C\CCCC(=O)O [Prostaglandin D2] | <0.01%
9 | Prostaglandin F2α | <0.01%
10 | CCCCCC(=O)CC[C@@H]1[C@@H](C/C=C\CCCC(=O)O)[C@@H](O)C[C@H]1O [13,14-dihydro-15-keto Prostaglandin F2α] | <0.01%
11 | CCCCCC(=O)CC[C@H]1[C@H](O)CC(=O)[C@@H]1C/C=C\CCCC(=O)O [13,14-dihydro-15-keto Prostaglandin E2] | <0.01%
12 | O=C(O)CCCCC(=O)CC[C@@H]1[C@@H](CCC(=O)O)[C@@H](O)C[C@H]1O [tetranor-PGFM] | <0.01%

— patent US20120021437A1, “TETRANOR-PGDM/PGJM SPECIFIC IMMUNOGENS, ANTIBODIES, TRACERS, ASSAY KITS AND METHODS FOR MAKING SAME” (Cayman Chemical Company, Incorporated, priority 2010, published 2012)
